Data as given in publication PMC4513223 (Clinical Pharmacokinetics, 2015).
Like-named read-outs stand apart in the source and are kept apart here.

Columns and labels:
[1] = Non-compartmental plasma pharmacokinetics after a single oral filgotinib dose; type: in vivo; conditions: male, human
JAK1 = conditions: human whole blood; cited from earlier work
[2] = test system: JAK1 (IL-6-induced STAT1 phosphorylation); type: cell-based, human; conditions: sigmoid Emax model, common to filgotinib and metabolite; estimate (% RSE)
[3] = Population pharmacokinetic model; type: in vivo, human; conditions: estimate (% RSE)
[4] = type: in vivo, human; conditions: for Tmax / AUC(0-t) / Cmax / concentration at 12 h / concentration at 24 h: oral

O=C(Nc1nc2cccc(-c3ccc(CN4CCS(=O)(=O)CC4)cc3)n2n1)C1CC1 [Filgotinib]
AUC(0-inf) ([1]; 10 mg): 0.136 µg·h/mL | Cmax ([1]; 10 mg): 0.0357 µg/mL | Tmax ([1]; 10 mg): 1 h | half-life ([1]; 10 mg): 6.38 h | AUC(0-inf) ([1]; 25 mg): 0.348 µg·h/mL | Cmax ([1]; 25 mg): 0.083 µg/mL | Tmax ([1]; 25 mg): 2.5 h | half-life ([1]; 25 mg): 5.72 h | AUC(0-inf) ([1]; 50 mg): 0.771 µg·h/mL | Cmax ([1]; 50 mg): 0.247 µg/mL | Tmax ([1]; 50 mg): 2 h | half-life ([1]; 50 mg): 5.28 h | AUC(0-inf) ([1]; 100 mg): 1.74 µg·h/mL | Cmax ([1]; 100 mg): 0.565 µg/mL | Tmax ([1]; 100 mg): 2 h | half-life ([1]; 100 mg): 4.91 h | AUC(0-inf) ([1]; 200 mg): 4.84 µg·h/mL | Cmax ([1]; 200 mg): 1.16 µg/mL | Tmax ([1]; 200 mg): 3 h | half-life ([1]; 200 mg): 5.68 h | selectivity for JAK1- over JAK2-dependent signaling (JAK1): 30 fold | log H (hill factor) [2]: 0.680 (27.7) | Effect of sex (on V C/F) ([3]; covariate effect): 2.95 (47.7) | Relative increase in bioavailability in RA patients vs healthy volunteers [3]: 0.216 (39.0) | ka (first-order absorption rate constant) ([3]; log-transformed parameter): −0.733 (5.64) /h | FRAC300 mg ([3]; probit-transformed parameter, 300 mg dose): 0.375 (23.9) | FRAC450 mg ([3]; probit-transformed parameter, 450 mg dose): 0.363 (38.5) | Tmax ([4]; male, human, plasma): 0.5 to 5 h | AUC(0-t) ([4]; male, human, plasma, 25 mg): 0.346 µg·h/mL | Cmax ([4]; male, human, plasma, 25 mg): 0.144 µg/mL | Tmax ([4]; male, human, plasma, 25 mg): 0.5 h | concentration at 12 h ([4]; male, human, plasma, 25 mg): 0.00375 µg/mL | AUC(0-t) ([4]; male, human, plasma, 50 mg): 0.758 µg·h/mL | Cmax ([4]; male, human, plasma, 50 mg): 0.211 µg/mL | Tmax ([4]; male, human, plasma, 50 mg): 1.5 h | concentration at 12 h ([4]; male, human, plasma, 50 mg): 0.00952 µg/mL | AUC(0-t) ([4]; male, human, plasma, 100 mg): 2.38 µg·h/mL | Cmax ([4]; male, human, plasma, 100 mg): 0.556 µg/mL | Tmax ([4]; male, human, plasma, 100 mg): 3 h | concentration at 12 h ([4]; male, human, plasma, 100 mg): 0.0278 µg/mL | AUC(0-t) ([4]; male, human, plasma, 200 mg): 4.45 µg·h/mL | Cmax ([4]; male, human, plasma, 200 mg): 1.2 µg/mL | Tmax ([4]; male, human, plasma, 200 mg): 2 h | concentration at 24 h ([4]; male, human, plasma, 200 mg): 0.00604 µg/mL | AUC(0-t) ([4]; male, human, plasma, 300 mg): 4.4 µg·h/mL | Cmax ([4]; male, human, plasma, 300 mg): 1.38 µg/mL | Tmax ([4]; male, human, plasma, 300 mg): 1.5 h | concentration at 24 h ([4]; male, human, plasma, 300 mg): 0.00993 µg/mL | AUC(0-t) ([4]; male, human, plasma, 450 mg): 10.2 µg·h/mL | Cmax ([4]; male, human, plasma, 450 mg): 2.58 µg/mL | Tmax ([4]; male, human, plasma, 450 mg): 2.5 h | concentration at 24 h ([4]; male, human, plasma, 450 mg): 0.0176 µg/mL | half-life ([4]; male, human, plasma, po, elimination half-life, average, oral administration): 6 h | accumulation at steady state ([4]; repeated dosing): no accumulation | time to steady state of plasma concentrations ([4]; repeated dosing, regardless of dose and regimen (once or twice daily)): ≤ 2 days
